From patent US9162992B2, “Compounds and compositions for treatment of breathing control disorders or diseases” (GALLEON PHARMACEUTICALS, INC., priority 2010, dated 2015)
Where a name gives a salt, the structure may show the parent alone.

Assays:
[1] = Solubility of process impurity (observation); assay type: physicochemical
Description: Under certain conditions where the compounds of the present invention and their synthetic intermediates are exposed to acidic or alkaline aqueous environments, the bond between the aromatic heterocycle and the ring substituents may be susceptible to hydrolytic cleavage. For example, in the intermediates to compounds of formula (II-a), a halo substituent in the 2 position (Schemes 3 and 4) may be hydrolytically replaced with a hydroxyl group to yield N-(4,6-Bis(n-propylamino)-1,3,5-triazin-2-ol (CLXXVIII). Similarly, the amine substituents of compounds of formula (II-a) may be displaced by a hydroxyl group. Without wishing to be bound by theory, a series of chemical changes may occur to enable this substitution, such as a prior oxidation of the appended amine side chain, with hydrolytic replacement by hydroxyl as the final transformation. As a specific non-limiting example, the N,O-dimethylhydroxylamino substituent of N-(4,6-Bis-n-propylamino-[1,3,5]triazin-2-yl)-N,O-dimethyl-hydroxylamine (XXXV) may be partially displaced by hydroxyl during processing in the presence of water, forming (CLXXVIII) as a process impurity. […] It was unexpectedly observed that even at elevated temperatures (CLXXVIII) is very insoluble relative to the active ingredient. Thus, trace quantities of this compound in the API can be problematic in liquid formulations. […]

**Q.** For `CCCNc1cc(N(C)OC)nc(NCCC)n1` (as salt: hydrogen sulfate) [CXXI, 2,6-Bis-(N-n-propylamino)-[1,3]pyrimidin-4-yl)-N,O-dimethyl-hydroxylamine hydrogen sulfate], which melting point is on record?
**A.** 123 to 126 °C

**Q.** For `CCCNc1nc(O)nc(NCCC)n1` [CLXXVIII], which “solubility in aqueous environments” value [1] is on record?
**A.** sparingly soluble

**Q.** And the “solubility in most organic solvents” value [1]?
**A.** very low solubility
